The target of data set [1] is T1, ENTH domain of epsin1 (ENTH^WT; Rat Epsin1 WT ENTH 1–164) (Rattus norvegicus, UniProt O88339).
T1 construct: gene Epn1; ENTH domain residues 1-164, pGEX-6P-2, expressed in E. coli BL21(DE3), GST tag cleaved with PreScission protease
T1 sequence (O88339 1-164): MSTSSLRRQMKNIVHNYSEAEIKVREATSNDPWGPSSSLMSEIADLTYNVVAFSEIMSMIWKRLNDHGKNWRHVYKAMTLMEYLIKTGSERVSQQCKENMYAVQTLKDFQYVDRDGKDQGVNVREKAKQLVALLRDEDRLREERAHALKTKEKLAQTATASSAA
In words: LUV co-sedimentation with SDS-PAGE, electron microscopy, DLS: partial restoration of oligomerization and membrane remodeling. The following applies: 4 times molar excess of L-SOP to ENTH; PS-free PC/PE/PI(4,5)P2 (65:30:5) LUVs; effect on oligomerization, binding not measured directly. It counts as biochemical.

Data set [2] concerns the target T1, ENTH domain of epsin1 (ENTH^WT; Rat Epsin1 WT ENTH 1–164). In words: reflectometric interference spectroscopy (RIfS), Langmuir adsorption isotherm. It counts as binding. The following applies: PI(4,5)P2 in supported POPC/PI(4,5)P2 (95:5) bilayer without PS; PBS pH 7.4; apparent membrane dissociation constant in protein concentration. The source says:
(§1) reflectometric interference spectroscopy (RIfS), Langmuir adsorption isotherm on ENTH domain of epsin1 (ENTH^WT; Rat Epsin1 WT ENTH 1–164)

Data set [3] concerns the target T2, ENTH domain of epsin1 (ENTH^WT; Rat Epsin1 WT ENTH 1–164) (Rattus norvegicus, UniProt O88339, R114A).
T2 construct: gene Epn1; ENTH domain residues 1-164, pGEX-6P-2, expressed in E. coli BL21(DE3), GST tag cleaved with PreScission protease
T2 sequence (O88339 1-164 R114A): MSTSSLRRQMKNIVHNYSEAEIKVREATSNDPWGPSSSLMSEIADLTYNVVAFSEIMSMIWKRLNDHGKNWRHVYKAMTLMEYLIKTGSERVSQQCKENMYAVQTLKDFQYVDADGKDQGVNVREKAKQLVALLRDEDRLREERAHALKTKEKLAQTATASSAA
The description is as above. The data set is classed as binding. The following applies: PI(4,5)P2 in supported POPC/PI(4,5)P2 (95:5) bilayer without PS; PBS pH 7.4; apparent membrane dissociation constant in protein concentration.
Excerpt: as §1

Data set [4] concerns the molecule itself. In words: SDS-resistant oligomers on SDS-PAGE after liposome co-sedimentation; 20 µM protein with 2 mg/ml LUVs that contain PS (Folch + PI(4,5)P2, or PC/PE/PS/PI(4,5)P2 with 5-20% PS), 3 h 30 °C, HEPES buffer, 205,000 x g, pellet and supernatant on SDS-PAGE; self-association on membranes.
Data set [5] concerns the molecule itself. In words: FRET or BRET; Atto488-labeled (donor) and Atto532-labeled (acceptor) ENTH domains, total 5 and 15 µM, in 2 mg/ml LUV suspension; LUVs PC/PE/PS/PI(4,5)P2 (45:30:20:5) compared with PS-free PC/PE/PI(4,5)P2 (65:30:5), on which the wild type gave reduced FRET; excitation 493 nm. On the technique in general: Bioluminescence resonance energy transfer reports proximity on the nanometre scale.

The source of these data is paper PMC7966211, “Cooperativity of membrane-protein and protein–protein interactions control membrane remodeling by epsin 1 and affects clathrin-mediated endocytosis” (Cellular and Molecular Life Sciences: CMLS, 2020).

For the molecule `N[C@@H](COP(=O)(O)O)C(=O)O` [L-SOP], the “LUV co-sedimentation with SDS-PAGE, electron microscopy, DLS: partial restoratio” value in data set [1] is “presence of the PS headgroup was sufficient to partially restore oligomerization and membrane remodeling”.

As for PI(4,5)P2, the results for the Kd in data set [2] and in data set [3] were 1000 ± 200 nM and 2900 ± 800 nM, respectively.

B1: Rat Epsin1 WT ENTH 1-164 (domain or fragment, UniProt O88339 1-164, looked up)
chain: MSTSSLRRQMKNIVHNYSEAEIKVREATSNDPWGPSSSLMSEIADLTYNVVAFSEIMSMIWKRLNDHGKNWRHVYKAMTLMEYLIKTGSERVSQQCKENMYAVQTLKDFQYVDRDGKDQGVNVREKAKQLVALLRDEDRLREERAHALKTKEKLAQTATASSAA
notes: Epsin 1, rat, ENTH (epsin N-terminal homology) domain, residues 1-164; Expressed from pGEX-6P-2; also called ENTH domain; ENTH^WT; source: E. coli BL21(DE3), purified (GSTrap, GST cleaved with PreScission Protease, anion exchange, SEC)
On to B1, for which the binding result in data set [4] is given as “binds”.

B2: ENTH WT (C96A A155C), fluorescently labeled (domain or fragment, rat, UniProt O88339 1-164, looked up)
chain: MSTSSLRRQMKNIVHNYSEAEIKVREATSNDPWGPSSSLMSEIADLTYNVVAFSEIMSMIWKRLNDHGKNWRHVYKAMTLMEYLIKTGSERVSQQAKENMYAVQTLKDFQYVDRDGKDQGVNVREKAKQLVALLRDEDRLREERAHALKTKEKLCQTATASSAA
modifications: Atto488 maleimide (donor population) or Atto532 maleimide (acceptor population) by cysteine modification
notes: Epsin 1, rat, ENTH domain, residues 1-164, with C96A and A155C for labeling; Two populations of the same construct, one with Atto488 and one with Atto532, were mixed for FRET; also called ENTH-Atto-488; ENTH-Atto-532; source: E. coli BL21(DE3), purified (GSTrap, GST cleaved with PreScission Protease, anion exchange, SEC), then labeled
For the molecule B2, the binding result in data set [5] is “binds”.
